# Activity calls are given as the source filed them.
# What was measured:
# Procathepsin L = Procathepsin L (Homo sapiens, UniProt P07711); experiment: cathepsin L inhibitors, dose response, counter-screen for M1/M17 aminopeptidase inhibitor project, biochemical, QFRET, 1536-well (AID 2214)
# HEK293 = experiment: inhibitors of LMP1-driven NF-kB reporter, dose response, cell-based, HEK293, luciferase, cherry-pick (AID 588343); assay type: functional; details: Homo sapiens
# Aspartyl aminopeptidase = Aspartyl aminopeptidase (Plasmodium falciparum 3D7, UniProt Q8I2J3); experiment: Counterscreen for inhibitors of M1 and M17 aminopeptidases: QFRET-based biochemical high throughput dose response assay for inhibitors of the Plasmodium falciparum M18 Aspartyl Aminopeptidase (PFM18AAP). [Related PubChem assays: 1619 (Screening assay (M17LAP inhibitors).), 1445 (Screening assay (M1AAP inhibitors).)]
# Aspartyl aminopeptidase, sequence (Q8I2J3 whole entry): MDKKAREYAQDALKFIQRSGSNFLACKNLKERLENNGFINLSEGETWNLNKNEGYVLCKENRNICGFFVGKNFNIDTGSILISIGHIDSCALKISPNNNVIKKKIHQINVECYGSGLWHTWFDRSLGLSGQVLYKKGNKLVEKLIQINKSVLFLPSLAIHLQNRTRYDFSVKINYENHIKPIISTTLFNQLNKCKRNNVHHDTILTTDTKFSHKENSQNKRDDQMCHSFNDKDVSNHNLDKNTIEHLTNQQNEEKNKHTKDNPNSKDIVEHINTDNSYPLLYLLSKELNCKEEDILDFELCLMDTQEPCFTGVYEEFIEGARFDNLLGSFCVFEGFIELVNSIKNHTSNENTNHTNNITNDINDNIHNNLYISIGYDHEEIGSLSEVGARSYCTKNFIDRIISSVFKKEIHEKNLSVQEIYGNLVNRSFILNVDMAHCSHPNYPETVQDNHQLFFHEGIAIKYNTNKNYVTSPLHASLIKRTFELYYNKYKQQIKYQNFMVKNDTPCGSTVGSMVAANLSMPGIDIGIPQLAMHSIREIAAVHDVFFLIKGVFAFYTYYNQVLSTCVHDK
# Leucine aminopeptidase = target: T1, Leucine aminopeptidase (Plasmodium falciparum 3D7, UniProt Q8IL11); experiment: P. falciparum M17LAP inhibitors, primary screen, biochemical, fluorogenic H-Leu-NHMec substrate, 1536-well (AID 1619); assay type: functional
# T1 sequence (Q8IL11 whole entry): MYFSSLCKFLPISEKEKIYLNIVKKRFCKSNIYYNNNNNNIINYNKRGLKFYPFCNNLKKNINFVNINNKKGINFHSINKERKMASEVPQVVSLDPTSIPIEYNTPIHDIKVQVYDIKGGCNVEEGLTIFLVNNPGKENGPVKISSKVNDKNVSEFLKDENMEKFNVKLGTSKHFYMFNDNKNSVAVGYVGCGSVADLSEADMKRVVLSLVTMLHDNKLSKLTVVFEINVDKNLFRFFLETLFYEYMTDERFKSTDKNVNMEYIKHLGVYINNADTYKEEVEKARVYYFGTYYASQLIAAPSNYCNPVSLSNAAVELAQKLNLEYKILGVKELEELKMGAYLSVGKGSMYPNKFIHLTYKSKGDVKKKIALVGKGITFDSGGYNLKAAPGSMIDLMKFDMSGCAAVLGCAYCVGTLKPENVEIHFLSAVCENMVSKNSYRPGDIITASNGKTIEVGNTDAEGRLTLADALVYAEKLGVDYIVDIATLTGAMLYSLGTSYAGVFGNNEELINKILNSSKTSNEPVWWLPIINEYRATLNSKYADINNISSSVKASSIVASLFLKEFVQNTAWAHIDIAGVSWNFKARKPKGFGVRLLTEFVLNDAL
# Phospholipase D1 = Phospholipase D1 (Homo sapiens, UniProt Q13393); experiment: PLD1 inhibitor potency in cells, dose response (AID 602151); assay type: functional;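 also: cellular PLD1 assay in Calu-1 cells stimulated with PMA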
# Phospholipase D1, sequence (Q13393 whole entry): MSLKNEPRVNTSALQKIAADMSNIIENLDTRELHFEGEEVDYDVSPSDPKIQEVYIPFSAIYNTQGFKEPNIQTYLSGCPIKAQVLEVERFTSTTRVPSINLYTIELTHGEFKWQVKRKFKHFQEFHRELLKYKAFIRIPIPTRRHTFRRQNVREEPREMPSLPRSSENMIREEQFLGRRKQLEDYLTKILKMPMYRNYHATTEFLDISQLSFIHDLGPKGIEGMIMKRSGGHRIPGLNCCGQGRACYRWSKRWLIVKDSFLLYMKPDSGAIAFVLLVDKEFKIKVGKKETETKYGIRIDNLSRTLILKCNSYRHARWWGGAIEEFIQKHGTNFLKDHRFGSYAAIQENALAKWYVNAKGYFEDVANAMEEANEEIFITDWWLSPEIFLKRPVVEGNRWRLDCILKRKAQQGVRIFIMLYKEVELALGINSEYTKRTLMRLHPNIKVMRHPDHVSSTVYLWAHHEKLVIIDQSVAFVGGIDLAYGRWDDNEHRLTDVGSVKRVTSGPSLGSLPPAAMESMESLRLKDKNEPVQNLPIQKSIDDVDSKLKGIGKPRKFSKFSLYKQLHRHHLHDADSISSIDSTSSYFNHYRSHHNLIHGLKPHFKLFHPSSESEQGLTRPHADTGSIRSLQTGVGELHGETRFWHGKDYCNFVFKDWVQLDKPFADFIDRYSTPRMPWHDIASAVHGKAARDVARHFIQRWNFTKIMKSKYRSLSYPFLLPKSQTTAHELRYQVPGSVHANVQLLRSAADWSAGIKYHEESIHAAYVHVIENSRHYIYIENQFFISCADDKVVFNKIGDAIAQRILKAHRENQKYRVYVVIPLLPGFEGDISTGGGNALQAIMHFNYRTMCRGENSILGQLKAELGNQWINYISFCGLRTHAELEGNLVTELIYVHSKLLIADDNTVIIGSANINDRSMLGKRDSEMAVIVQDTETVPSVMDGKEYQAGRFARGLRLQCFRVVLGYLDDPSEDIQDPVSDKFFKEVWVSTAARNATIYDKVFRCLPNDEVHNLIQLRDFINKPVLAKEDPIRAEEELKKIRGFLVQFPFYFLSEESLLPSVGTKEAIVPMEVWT
# Phospholipase D2 = Phospholipase D2 (Homo sapiens, UniProt O14939); experiment: PLD2 inhibitor potency in cells, dose response (AID 602147); assay type: functional;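 also: cellular assay in HEK293 cells overexpressing GFP-tagged PLD2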
# Phospholipase D2, sequence (O14939 whole entry): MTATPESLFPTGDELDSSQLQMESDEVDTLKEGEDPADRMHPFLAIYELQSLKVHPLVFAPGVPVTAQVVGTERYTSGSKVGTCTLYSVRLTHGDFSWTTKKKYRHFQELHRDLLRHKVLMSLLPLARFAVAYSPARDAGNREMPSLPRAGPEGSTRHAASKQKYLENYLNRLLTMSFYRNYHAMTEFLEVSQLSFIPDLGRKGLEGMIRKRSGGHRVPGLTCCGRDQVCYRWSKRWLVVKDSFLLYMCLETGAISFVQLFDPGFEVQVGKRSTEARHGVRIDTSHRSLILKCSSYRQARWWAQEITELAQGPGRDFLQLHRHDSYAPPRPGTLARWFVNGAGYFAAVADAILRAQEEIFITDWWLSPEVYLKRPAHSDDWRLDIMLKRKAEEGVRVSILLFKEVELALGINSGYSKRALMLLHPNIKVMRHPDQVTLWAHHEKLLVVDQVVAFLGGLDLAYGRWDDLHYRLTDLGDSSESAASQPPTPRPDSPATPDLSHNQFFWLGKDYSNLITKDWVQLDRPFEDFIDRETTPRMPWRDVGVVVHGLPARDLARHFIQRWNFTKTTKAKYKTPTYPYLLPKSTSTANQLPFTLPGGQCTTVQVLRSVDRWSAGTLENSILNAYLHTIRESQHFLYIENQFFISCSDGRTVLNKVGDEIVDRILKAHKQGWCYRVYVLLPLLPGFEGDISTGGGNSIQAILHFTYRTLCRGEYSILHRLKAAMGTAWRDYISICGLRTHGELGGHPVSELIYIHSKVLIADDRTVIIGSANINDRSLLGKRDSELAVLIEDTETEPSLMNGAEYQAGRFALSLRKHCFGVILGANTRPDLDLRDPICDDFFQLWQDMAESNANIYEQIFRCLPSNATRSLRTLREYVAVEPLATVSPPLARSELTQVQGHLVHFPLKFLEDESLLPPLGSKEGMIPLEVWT
# INS1 = experiment: protection from cytokine-driven beta-cell apoptosis, dose response, JC-1 fluorescence, INS-1E, dry powder, set 2 (AID 488867); assay type: functional, cell-based; details: Rattus norvegicus
# Vero = Vero cell cytotoxicity, cytotoxicity control for flavivirus capping enzyme inhibitors (AID 588742); assay type: functional; details: Chlorocebus sabaeus
# Protein RecA = target: T2, Protein RecA (Mycobacterium tuberculosis, UniProt P9WHJ3); experiment: Fluorescence Cell-Free Homogeneous Dose Retest to Identify Inhibitors of RecA-Intein Splicing Activity. [Related pubchem assays (depositor defined):AID2097, AID2223, AID489010, AID492950]; assay type: functional
# T2 sequence (P9WHJ3 whole entry): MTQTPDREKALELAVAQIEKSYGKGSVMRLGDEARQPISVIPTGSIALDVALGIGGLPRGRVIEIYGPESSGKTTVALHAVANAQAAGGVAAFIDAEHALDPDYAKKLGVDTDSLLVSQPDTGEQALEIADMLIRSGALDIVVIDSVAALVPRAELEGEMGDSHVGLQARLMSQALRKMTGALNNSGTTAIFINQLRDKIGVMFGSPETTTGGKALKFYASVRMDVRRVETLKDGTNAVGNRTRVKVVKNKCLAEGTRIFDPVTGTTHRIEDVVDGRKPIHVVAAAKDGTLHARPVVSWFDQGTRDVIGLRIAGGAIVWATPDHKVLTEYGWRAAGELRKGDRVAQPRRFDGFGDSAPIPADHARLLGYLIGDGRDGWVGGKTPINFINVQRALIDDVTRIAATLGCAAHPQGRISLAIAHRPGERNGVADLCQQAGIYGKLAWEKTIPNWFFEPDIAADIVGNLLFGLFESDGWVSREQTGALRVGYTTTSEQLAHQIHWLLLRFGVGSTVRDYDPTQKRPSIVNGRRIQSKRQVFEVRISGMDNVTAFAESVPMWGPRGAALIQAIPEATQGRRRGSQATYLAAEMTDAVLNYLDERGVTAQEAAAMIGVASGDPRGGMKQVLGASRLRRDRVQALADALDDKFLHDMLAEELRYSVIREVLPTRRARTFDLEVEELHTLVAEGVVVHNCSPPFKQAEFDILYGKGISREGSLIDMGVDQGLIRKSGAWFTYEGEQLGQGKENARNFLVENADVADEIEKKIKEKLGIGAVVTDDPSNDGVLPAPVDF
# [1] = target: T3, Replicative DNA helicase DnaB (Mycobacterium tuberculosis, UniProt P9WMR3); experiment: DnaB intein splicing inhibitors, dose response, biochemical, cell-free fluorescence (AID 449749); assay type: functional
# T3 sequence (P9WMR3 whole entry): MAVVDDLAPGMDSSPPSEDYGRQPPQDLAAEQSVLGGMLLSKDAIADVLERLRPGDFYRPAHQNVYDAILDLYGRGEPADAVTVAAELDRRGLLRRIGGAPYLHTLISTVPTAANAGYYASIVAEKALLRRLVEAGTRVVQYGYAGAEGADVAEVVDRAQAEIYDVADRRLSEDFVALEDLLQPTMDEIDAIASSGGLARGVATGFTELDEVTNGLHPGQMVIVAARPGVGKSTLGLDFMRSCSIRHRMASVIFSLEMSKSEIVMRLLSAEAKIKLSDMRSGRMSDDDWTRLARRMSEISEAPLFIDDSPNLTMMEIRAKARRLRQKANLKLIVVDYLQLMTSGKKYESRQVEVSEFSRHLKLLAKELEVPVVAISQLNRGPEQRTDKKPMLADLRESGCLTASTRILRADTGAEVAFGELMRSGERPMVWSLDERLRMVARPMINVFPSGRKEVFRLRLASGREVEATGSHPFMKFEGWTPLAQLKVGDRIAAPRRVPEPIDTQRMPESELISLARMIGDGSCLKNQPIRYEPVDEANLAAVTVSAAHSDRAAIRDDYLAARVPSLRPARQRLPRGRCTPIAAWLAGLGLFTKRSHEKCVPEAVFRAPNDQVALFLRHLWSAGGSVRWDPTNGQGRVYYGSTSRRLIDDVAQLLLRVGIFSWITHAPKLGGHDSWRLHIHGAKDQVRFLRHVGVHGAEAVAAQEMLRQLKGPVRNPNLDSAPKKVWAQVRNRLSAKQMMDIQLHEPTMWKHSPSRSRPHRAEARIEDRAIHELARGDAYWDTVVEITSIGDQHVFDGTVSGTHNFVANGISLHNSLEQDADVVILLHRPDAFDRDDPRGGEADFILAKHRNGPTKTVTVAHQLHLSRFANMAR
# Genome polyprotein = Genome polyprotein (dengue virus type 2, UniProt P29990); experiment: Dengue-2 NS5 methyltransferase inhibitors, primary screen, biochemical, confirmation dose response (AID 588689); assay type: functional
# Genome polyprotein, sequence (P29990 2492-3391 limits assumed): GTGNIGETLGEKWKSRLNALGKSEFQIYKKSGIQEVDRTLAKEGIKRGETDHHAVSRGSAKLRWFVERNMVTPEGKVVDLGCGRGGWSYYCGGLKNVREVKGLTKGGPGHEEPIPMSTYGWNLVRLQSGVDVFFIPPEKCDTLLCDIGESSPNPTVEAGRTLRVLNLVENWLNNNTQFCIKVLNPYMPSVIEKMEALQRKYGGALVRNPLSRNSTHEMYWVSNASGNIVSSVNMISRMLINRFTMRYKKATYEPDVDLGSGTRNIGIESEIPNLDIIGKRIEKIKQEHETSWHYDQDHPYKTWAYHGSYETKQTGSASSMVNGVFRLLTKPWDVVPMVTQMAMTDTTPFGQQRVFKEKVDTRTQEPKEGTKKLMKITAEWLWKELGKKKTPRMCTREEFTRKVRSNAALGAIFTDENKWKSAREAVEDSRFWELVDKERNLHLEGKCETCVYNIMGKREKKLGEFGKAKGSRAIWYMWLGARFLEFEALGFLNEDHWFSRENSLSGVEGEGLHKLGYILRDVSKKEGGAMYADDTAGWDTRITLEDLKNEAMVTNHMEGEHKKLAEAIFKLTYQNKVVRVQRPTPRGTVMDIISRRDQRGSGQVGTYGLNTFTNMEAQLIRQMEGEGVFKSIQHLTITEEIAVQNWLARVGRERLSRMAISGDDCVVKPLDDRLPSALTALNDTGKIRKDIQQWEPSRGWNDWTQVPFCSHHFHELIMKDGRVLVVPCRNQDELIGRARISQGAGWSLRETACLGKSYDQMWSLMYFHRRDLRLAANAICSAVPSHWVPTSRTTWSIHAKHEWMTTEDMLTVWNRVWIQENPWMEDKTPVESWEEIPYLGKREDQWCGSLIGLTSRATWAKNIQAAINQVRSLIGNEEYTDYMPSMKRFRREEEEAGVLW
# [2] = HepG2 cell cytotoxicity, dose response, cytotoxicity control for Shn3 inhibitor project, CellTiter-Glo, cherry-picked (AID 624134); assay type: functional, cell-based
# [3] = control 3'UTR Renilla luciferase suppression, dose response, counter-screen for Shn3 inhibitor project, cell-based, Clone20-Shn3RL, cherry-picked (AID 624133); assay type: functional
# [4] = Shn3 3'UTR reporter inhibitors, dose response, cell-based, Clone20 osteoblasts, firefly luciferase, cherry-picked (AID 624132); assay type: functional;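 also: firefly luciferase luminescence from reporter carrying the Shn3 3'UTR in osteoblasts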
# [5] = target: T4, Hepatocyte nuclear factor 4-alpha (Homo sapiens, UniProt P41235); assay type: functional, cell-based;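 also: biochemical luminescence-based dose-response counterscreen measuring inhibition of HNF4 dimerization, run alongside a screen for blockers of ABHD5–perilipin-5 interaction; split luciferase complementation of HNF4 fusion proteins in cell lysate measuring dimerization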
# T4 sequence (P41235 whole entry): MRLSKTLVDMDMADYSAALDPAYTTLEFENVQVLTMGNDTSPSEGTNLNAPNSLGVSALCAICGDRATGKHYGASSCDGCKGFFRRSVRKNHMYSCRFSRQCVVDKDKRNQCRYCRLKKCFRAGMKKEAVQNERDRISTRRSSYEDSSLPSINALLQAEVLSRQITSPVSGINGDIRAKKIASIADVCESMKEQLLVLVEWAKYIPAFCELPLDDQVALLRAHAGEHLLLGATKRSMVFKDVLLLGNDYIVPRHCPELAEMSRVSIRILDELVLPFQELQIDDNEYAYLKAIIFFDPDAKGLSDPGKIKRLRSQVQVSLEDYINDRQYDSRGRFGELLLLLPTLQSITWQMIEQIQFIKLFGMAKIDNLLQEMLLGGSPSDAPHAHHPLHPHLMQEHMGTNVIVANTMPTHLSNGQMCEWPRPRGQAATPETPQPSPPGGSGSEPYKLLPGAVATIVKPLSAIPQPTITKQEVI
# [6] = target: Potassium voltage-gated channel subfamily KQT member 2 (Rattus norvegicus, UniProt O88943, W236L); experiment: KCNQ2 channel potentiators, dose response, mechanism study for KCNQ2 potentiator project, cell-based, automated electrophysiology (AID 2603); assay type: functional
# Potassium voltage-gated channel subfamily KQT member 2, sequence (O88943 whole entry W236L): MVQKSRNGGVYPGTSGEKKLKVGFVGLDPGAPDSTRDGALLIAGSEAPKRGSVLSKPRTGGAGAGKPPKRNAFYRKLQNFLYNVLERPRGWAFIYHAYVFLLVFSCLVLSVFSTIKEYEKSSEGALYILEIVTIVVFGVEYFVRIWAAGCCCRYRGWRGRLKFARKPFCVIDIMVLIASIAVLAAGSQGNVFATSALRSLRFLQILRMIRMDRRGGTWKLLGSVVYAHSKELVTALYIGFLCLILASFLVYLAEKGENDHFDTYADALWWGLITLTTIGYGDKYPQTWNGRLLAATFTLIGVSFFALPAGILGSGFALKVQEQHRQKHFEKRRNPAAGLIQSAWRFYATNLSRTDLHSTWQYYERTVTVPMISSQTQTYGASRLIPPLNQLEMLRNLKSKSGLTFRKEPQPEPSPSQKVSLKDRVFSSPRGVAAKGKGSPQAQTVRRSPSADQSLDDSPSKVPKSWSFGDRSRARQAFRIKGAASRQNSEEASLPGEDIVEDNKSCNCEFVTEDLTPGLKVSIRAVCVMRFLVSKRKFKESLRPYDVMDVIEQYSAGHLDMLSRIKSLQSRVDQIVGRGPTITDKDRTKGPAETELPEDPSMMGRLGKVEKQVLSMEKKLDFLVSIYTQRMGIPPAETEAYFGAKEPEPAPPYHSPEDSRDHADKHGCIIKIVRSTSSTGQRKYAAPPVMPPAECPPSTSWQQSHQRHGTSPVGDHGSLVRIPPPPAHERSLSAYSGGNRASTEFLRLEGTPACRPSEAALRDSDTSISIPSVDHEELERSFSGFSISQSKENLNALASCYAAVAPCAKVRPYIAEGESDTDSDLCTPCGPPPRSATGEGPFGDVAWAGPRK
# Caspase-6 = target: T5, Caspase-6 (Homo sapiens, UniProt P55212); experiment: human caspase-6 inhibitors, dose response, biochemical, VEID-R110 fluorescence, cherry-pick (AID 720632)
# T5 sequence (P55212 whole entry): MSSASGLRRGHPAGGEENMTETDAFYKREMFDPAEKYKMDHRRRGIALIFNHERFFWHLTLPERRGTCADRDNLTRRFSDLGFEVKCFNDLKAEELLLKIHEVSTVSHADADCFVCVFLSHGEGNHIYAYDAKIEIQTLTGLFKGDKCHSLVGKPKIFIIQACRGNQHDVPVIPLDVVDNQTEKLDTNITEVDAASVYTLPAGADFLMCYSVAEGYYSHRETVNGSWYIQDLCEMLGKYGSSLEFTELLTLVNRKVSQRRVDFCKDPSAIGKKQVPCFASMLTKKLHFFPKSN
# Caspase-7 = target: T6, Caspase-7 (Homo sapiens, UniProt P55210); experiment: human caspase-7 inhibitors, dose response, selectivity assay for caspase-6 inhibitor project, biochemical, DEVD-R110 fluorescence, cherry-pick (AID 743295)
# T6 sequence (P55210 whole entry): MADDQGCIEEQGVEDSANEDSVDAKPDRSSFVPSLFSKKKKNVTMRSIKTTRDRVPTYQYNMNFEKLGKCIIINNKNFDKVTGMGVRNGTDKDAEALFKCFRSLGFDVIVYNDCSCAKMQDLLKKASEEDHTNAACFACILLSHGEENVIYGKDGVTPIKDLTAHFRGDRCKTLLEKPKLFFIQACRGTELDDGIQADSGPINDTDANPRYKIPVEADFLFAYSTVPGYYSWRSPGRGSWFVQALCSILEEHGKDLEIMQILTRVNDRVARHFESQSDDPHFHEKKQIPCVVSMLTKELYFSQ
# [7] = target: T7, Carboxy-terminal domain RNA polymerase II polypeptide A small phosphatase 1 (Homo sapiens, UniProt Q9GZU7); experiment: inhibitors of CTDSP1, concentration-response testing, biochemical assay, absorbance-based, actives from ultra-high-throughput screening (AID 540297); assay type: functional
# T7 sequence (Q9GZU7 whole entry): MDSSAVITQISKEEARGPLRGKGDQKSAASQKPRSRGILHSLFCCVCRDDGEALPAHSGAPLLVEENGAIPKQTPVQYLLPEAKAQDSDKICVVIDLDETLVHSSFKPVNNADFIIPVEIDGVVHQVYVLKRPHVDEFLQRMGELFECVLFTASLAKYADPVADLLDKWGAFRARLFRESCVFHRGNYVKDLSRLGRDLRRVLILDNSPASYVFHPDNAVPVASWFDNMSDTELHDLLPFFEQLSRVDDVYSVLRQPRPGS
# [8] = target: Beta-adrenergic receptor kinase 1 (Homo sapiens, UniProt P25098); experiment: aptamer displacement from bead-bound GRK2 – biochemical, cherry pick 1, bead flow cytometry, dose response (AID 504500)
# Caspase-8 = Caspase-8 (Homo sapiens, UniProt Q14790); experiment: caspase-8 inhibition counter-screen, dose response, selectivity assay for caspase-6 inhibitor project, biochemical, Z-IETD-R110 fluorescence, cherry-picked samples (AID 743294)
# Caspase-8, sequence (Q14790 217-374 limits assumed): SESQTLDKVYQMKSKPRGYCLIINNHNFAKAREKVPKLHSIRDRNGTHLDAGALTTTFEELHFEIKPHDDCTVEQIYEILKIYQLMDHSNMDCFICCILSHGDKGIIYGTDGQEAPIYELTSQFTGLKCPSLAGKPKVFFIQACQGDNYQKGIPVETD
# Caspase-8, sequence (Q14790 385-479 limits assumed): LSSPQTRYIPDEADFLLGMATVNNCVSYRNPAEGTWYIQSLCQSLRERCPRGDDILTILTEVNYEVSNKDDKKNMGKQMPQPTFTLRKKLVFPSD
# Procathepsin L, sequence (P07711 whole entry): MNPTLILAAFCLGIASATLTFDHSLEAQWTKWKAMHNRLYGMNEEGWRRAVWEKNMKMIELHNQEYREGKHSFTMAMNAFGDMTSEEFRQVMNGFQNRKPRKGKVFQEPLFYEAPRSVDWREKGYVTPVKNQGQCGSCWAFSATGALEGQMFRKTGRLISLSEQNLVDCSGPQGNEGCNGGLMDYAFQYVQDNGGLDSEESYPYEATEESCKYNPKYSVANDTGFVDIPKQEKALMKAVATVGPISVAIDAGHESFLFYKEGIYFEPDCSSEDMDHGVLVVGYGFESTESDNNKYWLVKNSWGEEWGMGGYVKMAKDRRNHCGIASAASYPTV
structure (smiles),measurement,setting,value
Cc1cc(C(=O)COC(=O)c2cccnc2O)c(C)n1-c1ccccc1,IC50,Procathepsin L,> 59.6 µM (not active)
same,AC50,HEK293,9.69 µM (active)
same,IC50,Aspartyl aminopeptidase,> 73.5 µM (not active)
same,IC50,Leucine aminopeptidase,2.67 µM (active)
C[C@H](CN1CCC(n2nnc3ccccc32)CC1)NC(=O)c1ccc2ccccc2c1,IC50,Phospholipase D1,3.8 µM (active)
same,IC50,Phospholipase D2,12 µM (active)
COc1ccc(S(=O)(=O)N(C)C[C@@H]2Oc3c(NC(=O)NC(C)C)cccc3C(=O)N([C@@H](C)CO)C[C@H]2C)cc1,AC50,INS1,46.4 µM (active)
CCc1nnc(NC(=O)c2nc(S(=O)(=O)Cc3ccccc3)ncc2Cl)s1,CC50,Vero,27.6 µM (active)
same,EC50,Protein RecA,5.09 µM (active)
same,AC50,[1],18.5 µM (active)
same,IC50,Genome polyprotein,> 100 µM (active)
same,AC50,[2],> 70 µM (inactive)
same,AC50,[3],11.1 µM (active)
same,AC50,[4],2.72 µM (active)
same,IC50,[5],5.95 µM (active)
same,EC50,[6],17.3 µM (active)
O=C(O)C1CCCCC1C(=O)Nc1cccc(Br)c1 (stereo unspecified),AC50,Caspase-6,0.669 µM (active)
same,AC50,Caspase-7,> 70 µM (inactive)
same,IC50,[7],3.06 µM (active)
same,EC50,[8],3.85 µM (active)
same,AC50,Caspase-8,25.8 µM (active)
